Measured values taken from PubChem BioAssay (NCI).
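Exposure lasted 48 hours, with cells grown in 96-well plates and compounds tested at five concentrations. TGI is the concentration that stops growth completely.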

What was measured:
Experiment in all cases: growth of human tumour cells (NCI), 48 h
COLO 205 colon = system: COLO 205 colon
DU-145 prostate = system: DU-145 prostate
HCT-15 colon = system: HCT-15 colon
HT29 colon = system: HT29 colon
KM12 colon = system: KM12 colon
LOX IMVI melanoma = system: LOX IMVI melanoma
SK-MEL-5 melanoma = system: SK-MEL-5 melanoma
U251 CNS = system: U251 CNS
OVCAR-3 ovarian = system: OVCAR-3 ovarian
SF-539 CNS = system: SF-539 CNS

Row | Compound | TGI (COLO 205 colon) [µM] | TGI (DU-145 prostate) [µM] | TGI (HCT-15 colon) [µM] | TGI (HT29 colon) [µM] | TGI (KM12 colon) [µM] | TGI (LOX IMVI melanoma) [µM] | TGI (SK-MEL-5 melanoma) [µM] | TGI (U251 CNS) [µM] | TGI (OVCAR-3 ovarian) [µM] | TGI (SF-539 CNS) [µM]
1 | Cc1nnc(N)nc1/C=C\c1ccc(Cl)cc1Cl | 55.8 | > 100 | > 100 | 41.7 | 32.6 | > 100 | 81.5 | > 100 | – | –
2 | Cc1cc2c(c(C(=O)NCC(=O)N[C@@H](C)C(=O)OCc3ccccc3)c1)Oc1c(cc(C)cc1C(=O)NCC(=O)N[C@@H](C)C(=O)OCc1ccccc1)S2 | > 100 | > 100 | > 100 | > 100 | > 100 | – | > 100 | > 100 | > 100 | –
3 | COc1cc(CC(C)=O)cc(OC)c1 | > 100 | > 100 | > 100 | > 100 | – | – | > 100 | > 100 | > 100 | –
4 | CCc1cc(C)cc2[n+]1CC=C2 | 81.5 | – | – | 75.2 | > 100 | > 100 | – | > 100 | – | 95.6
5 | CN(C)CN1CSC(=S)N(CN(C)C)C1 | – | > 100 | > 100 | > 100 | > 100 | > 100 | > 100 | > 100 | > 100 | –
6 | COc1ccc2c(c1)Oc1cc(O)ccc1[C@H]2c1ccccc1C(=O)NC(C)c1ccccc1 (some centres not stated) | 31.3 | – | 35.5 | 41.5 | 36.5 | 31.6 | 29.2 | 29.4 | 29.4 | 29.7
7 | COc1cccc2c1C(=O)c1c(O)c3c(c(O)c1C2=O)C[C@@](O)(C(C)=O)CC3S(=O)(=O)O (some centres not stated) | > 100 | – | > 100 | > 100 | > 100 | > 100 | > 100 | > 100 | > 100 | > 100
8 | COC1=C[C@]2(CCC(=O)O2)[C@@H]2Cc3ccccc3[C@H](O)[C@@H]2C1=O | > 100 | – | > 100 | > 100 | > 100 | 87.3 | 33.7 | 79.6 | > 100 | –
9 | Nc1nc(NCCOCP(=O)(O)O)c([N+](=O)[O-])c(=O)[nH]1 | > 100 | – | – | > 100 | > 100 | > 100 | – | > 100 | > 100 | > 100
10 | COC(=O)[C@H](CC(C)C)NC(=O)[C@H](Cc1ccccc1)N1CC2C=CC1C2 (some centres not stated) | > 100 | – | > 100 | > 100 | > 100 | > 100 | > 100 | > 100 | > 100 | > 100
11 | CC(C)OP(=S)(NC(=S)c1ccccc1)OC(C)C | > 100 | – | > 100 | > 100 | > 100 | > 100 | > 100 | > 100 | > 100 | > 100
12 | COC1OCC(O)C(NC(=O)N(C)N=O)C1O (configuration not stated) | > 100 | – | > 100 | > 100 | > 100 | > 100 | > 100 | > 100 | > 100 | > 100
13 | COc1cccc2c1OC1Sc3ccccc3-c3nn(-c4ccccc4)c-2c31 (configuration not stated) | > 100 | – | – | > 100 | > 100 | > 100 | – | > 100 | > 100 | > 100
14 | O=C(Cc1nc2ccc(C(=O)c3ccccc3)cc2[nH]c1=O)C(=O)Nc1nc2ccccc2[nH]1 | > 100 | – | > 100 | > 100 | > 100 | > 100 | > 100 | – | > 100 | > 100
15 | Fc1ccc(-c2sc(-c3ccsc3)cc2Cc2ccsc2)cc1 | > 10 | > 10 | > 10 | > 10 | > 10 | > 10 | > 10 | – | – | –
16 | O=C1C=C(Nc2ccccc2C(=O)CC(=O)C(=O)Nc2ccc(Cl)cc2)c2ccccc2C1=O | 34.5 | – | 24.8 | > 100 | 54.6 | 4.98 | 15.4 | 68.2 | 9.29 | 50.2
17 | CC1=NN(C(=O)Cc2ccccc2)C(=O)/C1=C\c1ccc([N+](=O)[O-])cc1 | > 100 | – | > 100 | > 100 | > 100 | > 100 | > 100 | > 100 | > 100 | > 100
18 | CC(C)=CC1C(C(=O)Oc2ccccc2C(C)C)C1(C)C (configuration not stated) | – | > 100 | 53.1 | 36.9 | 38.9 | 33.4 | 33.9 | 33.6 | 34.6 | –
19 | CC(C)(C)N/N=C(\C(=O)Nc1cccc(Cl)c1)C1C(=O)Nc2ccccc2S1=O (configuration not stated) | > 100 | – | > 100 | > 100 | > 100 | > 100 | > 100 | – | > 100 | > 100
20 | CC(=O)c1ccccc1NC(=O)C(=O)C(C(=O)c1ccc2ccccc2c1)C1OC(=O)c2ccccc21 (configuration not stated) | 30.2 | – | 40.1 | 92.4 | 52.2 | 26.4 | 24.4 | 40.7 | 54.3 | 22.1
